pEC50: −log10 of the molar value.

The target in assay [1] is Human CB1R (Cannabanoid receptor 1) (Homo sapiens (Human), UniProt P21554). Kind of assay: CB-1 in vitro cAMP (HTRF) assay in HEK-293 cells. Type of assay: cell-based. Conditions: HEK-293 cells stably transfected with human CB1R, 250 nM Forskolin, mean where tested more than once, read-out: CB-1 (HEK_cAMP) EC50. In short, it runs like this:
(§1)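 HEK-293 cells stably expressing human CB1 or CB2 plated overnight, then tested in HBSS/5 mM HEPES/0.1% BSA with 0.5 mM IBMX and forskolin (1.5 μM working dilution). Intracellular cAMP quantified by competitive HTRF immunoassay (d2-cAMP, cryptate anti-cAMP) against a cAMP standard curve; compounds as 1/3 serial dilutions from 10 mM DMSO stocks.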

The target of assay [2] is Human CB2R (Cannabanoid receptor 2) (Homo sapiens (Human), UniProt P34972). As to the kind of experiment: CB-2 in vitro cAMP (HTRF) assay in HEK-293 cells. Type of assay: cell-based. The conditions noted are these: HEK-293 cells stably transfected with human CB2R, 250 nM Forskolin, mean where tested more than once, read-out: CB-2 (HEK_cAMP) EC50. In short, it runs like this: as §1
Human CB2R (Cannabanoid receptor 2), sequence (P34972 whole entry): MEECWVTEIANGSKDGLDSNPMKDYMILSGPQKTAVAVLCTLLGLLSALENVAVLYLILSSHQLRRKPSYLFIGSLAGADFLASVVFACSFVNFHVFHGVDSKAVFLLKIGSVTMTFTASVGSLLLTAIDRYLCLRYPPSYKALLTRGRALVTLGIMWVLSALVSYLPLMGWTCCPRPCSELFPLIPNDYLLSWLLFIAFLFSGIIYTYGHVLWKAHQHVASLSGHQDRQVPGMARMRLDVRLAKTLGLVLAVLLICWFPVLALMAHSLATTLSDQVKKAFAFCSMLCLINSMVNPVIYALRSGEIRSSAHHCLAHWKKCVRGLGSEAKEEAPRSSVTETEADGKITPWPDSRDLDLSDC

Human CB1R (Cannabanoid receptor 1), sequence (P21554 whole entry): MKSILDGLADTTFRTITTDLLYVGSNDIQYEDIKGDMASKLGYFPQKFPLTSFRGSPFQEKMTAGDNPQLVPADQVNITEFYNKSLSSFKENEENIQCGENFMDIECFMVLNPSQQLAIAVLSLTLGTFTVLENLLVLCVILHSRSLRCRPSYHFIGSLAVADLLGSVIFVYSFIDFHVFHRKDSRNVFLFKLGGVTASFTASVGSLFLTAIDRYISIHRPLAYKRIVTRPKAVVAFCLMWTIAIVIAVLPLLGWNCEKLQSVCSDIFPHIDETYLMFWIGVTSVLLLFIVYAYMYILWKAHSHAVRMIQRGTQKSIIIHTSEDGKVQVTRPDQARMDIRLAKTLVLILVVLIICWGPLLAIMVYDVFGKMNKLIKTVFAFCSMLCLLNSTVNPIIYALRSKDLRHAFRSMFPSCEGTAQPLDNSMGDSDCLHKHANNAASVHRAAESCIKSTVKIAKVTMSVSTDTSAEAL

In the case of `O=C(O)C(=O)N1CCC(c2c3cc(C(c4ccc(Cl)cc4)c4ccc(Cl)cc4)ccc3nn2C2CC2)CC1` [Compound 126], the pEC50 (in general, the EC50 on a negative log10 scale, so that one unit is a factor of ten) was 6.21 in assay [1] and less than 5.00 in assay [2].
As to `O=C(O)CCC(=O)N1CCC(c2c3cc(C(c4ccc(Cl)cc4)c4ccc(Cl)cc4)ccc3nn2C2CC2)CC1` [Compound 127], the negative-log EC50 (pEC50) is 5.32 in assay [1] and less than 5.00 in assay [2].
The matching figures for `O=C(O)c1cccc(S(=O)(=O)N2CCC(Nc3n[nH]c4ccc(C(c5ccc(Cl)cc5)c5ccc(Cl)cc5)cc34)CC2)c1` [Compound 128]: 5.91 and less than 5.00.
The matching figures for `O=C(O)c1ccc(S(=O)(=O)N2CCC(Nc3n[nH]c4ccc(C(c5ccc(Cl)cc5)c5ccc(Cl)cc5)cc34)CC2)cc1` [Compound 129]: 6.69 and less than 5.00.
On to `O=S(=O)(c1ccc(O)cc1)N1CCC(Nc2n[nH]c3ccc(C(c4ccc(Cl)cc4)c4ccc(Cl)cc4)cc23)CC1` [Compound 130], for which the pEC50 is 7.82 in assay [1] and less than 5.00 in assay [2].
Taken in the same sequence, the figures for `O=C(O)CS(=O)(=O)N1CCC(c2c3cc(C(c4ccc(Cl)cc4)c4ccc(Cl)cc4)ccc3nn2C2CC2)CC1` [Compound 131] were 5.02 and less than 5.00.
For `O=C(CCO)N1CCC(c2c3cc(C(c4ccc(Cl)cc4)c4ccc(Cl)cc4)ccc3nn2C2CC2)CC1` [Compound 132], the pEC50 was 6.78 in assay [1] and less than 5.00 in assay [2].
As for `O=C(O)CCS(=O)(=O)N1CCC(c2c3cc(C(c4ccc(Cl)cc4)c4ccc(Cl)cc4)ccc3nn2C2CC2)CC1` [Compound 133], the results for the negative logarithm of the EC50 (pEC50) in assay [1] and in assay [2] were 5.41 and less than 5.00, respectively.
The matching figures for `NC(=O)CCS(=O)(=O)N1CCC(c2c3cc(C(c4ccc(Cl)cc4)c4ccc(Cl)cc4)ccc3nn2C2CC2)CC1` [Compound 134]: 6.67 and less than 5.00.
The matching figures for `O=C(O)CCC(=O)N1CCC(c2c3cc(C(c4ccc(Cl)cc4)c4ccc(Cl)cc4)ccc3nn2C2CC2)CC1` [Compound 135]: 6.78 and less than 5.00.
`O=S(=O)(N1CCC(c2c3cc(C(c4ccc(Cl)cc4)c4ccc(Cl)cc4)ccc3nn2C2CC2)CC1)C(F)(F)F` [Compound 136, 5-(bis(4-chlorophenyl)methyl)-2-cyclopropyl-3-(1-(trifluoromethylsulfonyl)piperidin-4-yl)-2H-indazole]: the negative-log EC50 (pEC50) in assay [1] was 7.96; in assay [2], less than 5.00.
Consider `NC(=O)CS(=O)(=O)N1CCC(c2c3cc(C(c4ccc(Cl)cc4)c4ccc(Cl)cc4)ccc3nn2C2CC2)CC1` [Compound 137], for which the negative-log EC50 (pEC50) in assay [1] was 6.80; in assay [2], less than 5.00.
Consider `NC(=O)C(=O)N1CCC(c2c3cc(C(c4ccc(Cl)cc4)c4ccc(Cl)cc4)ccc3nn2C2CC2)CC1` [Compound 138], for which the values for the pEC50 in assay [1] and in assay [2] were 6.23 and less than 5.00, respectively.
With `NC(=O)c1ccccc1S(=O)(=O)N1CCC(c2c3cc(C(c4ccc(Cl)cc4)c4ccc(Cl)cc4)ccc3nn2C2CC2)CC1` [Compound 139], the figures for the negative-log EC50 (pEC50) in assay [1] and in assay [2] were 6.69 and less than 5.00, respectively.
The matching figures for `NC(=O)c1cccc(S(=O)(=O)N2CCC(c3c4cc(C(c5ccc(Cl)cc5)c5ccc(Cl)cc5)ccc4nn3C3CC3)CC2)c1` [Compound 140, 3-(4-(5-(bis(4-chlorophenyl)methyl)-2-cyclopropyl-2H-indazol-3-yl)piperidin-1-ylsulfonyl)benzamide]: 7.96 and less than 5.00.
As to `NC(=O)c1ccccc1C(=O)N1CCC(c2c3cc(C(c4ccc(Cl)cc4)c4ccc(Cl)cc4)ccc3nn2C2CC2)CC1` [Compound 141], the figures for the pEC50 in assay [1] and in assay [2] were 5.21 and less than 5.00, respectively.
Take `O=C(c1nnn[nH]1)N1CCC(c2n[nH]c3ccc(C(c4ccc(Cl)cc4)c4ccc(Cl)cc4)cc23)CC1` [Compound 143]: the results for the negative-log EC50 (pEC50) in assay [1] and in assay [2] were 6.00 and less than 5.00, respectively.
Taken in the same sequence, the figures for `O=C(c1nnc[nH]1)N1CCC(c2n[nH]c3ccc(C(c4ccc(Cl)cc4)c4ccc(Cl)cc4)cc23)CC1` [Compound 144] were 5.26 and less than 5.00.
Taken in the same sequence, the figures for `O=C(c1c[nH]nn1)N1CCC(c2n[nH]c3ccc(C(c4ccc(Cl)cc4)c4ccc(Cl)cc4)cc23)CC1` [Compound 145] were 7.31 and less than 5.00.
Turning to `COc1cc(S(=O)(=O)N2CCC(c3c4cc(C(c5ccc(Cl)cc5)c5ccc(Cl)cc5)ccc4nn3C3CC3)CC2)ccc1C(N)=O` [Compound 146, 4-(4-(5-(bis(4-chlorophenyl)methyl)-2-cyclopropyl-2H-indazol-3-yl)piperidin-1-ylsulfonyl)-2-methoxybenzamide], the pEC50 was 8.15 in assay [1] and less than 5.00 in assay [2].
Taken in the same sequence, the figures for `CNC(=O)c1ccc(S(=O)(=O)N2CCC(c3c4cc(C(c5ccc(Cl)cc5)c5ccc(Cl)cc5)ccc4nn3C3CC3)CC2)cc1OC` [Compound 147, 4-(4-(5-(bis(4-chlorophenyl)methyl)-2-cyclopropyl-2H-indazol-3-yl)piperidin-1-ylsulfonyl)-2-methoxy-N-methylbenzamide] were 7.64 and less than 5.00.
`O=S(=O)(c1ccccc1O)N1CCC(c2c3cc(C(c4ccc(Cl)cc4)c4ccc(Cl)cc4)ccc3nn2C2CC2)CC1` [Compound 149, 2-(4-(5-(bis(4-chlorophenyl)methyl)-2-cyclopropyl-2H-indazol-3-yl)piperidin-1-ylsulfonyl)phenol]: the negative-log EC50 (pEC50) was 8.15 in assay [1] and less than 5.00 in assay [2].
Taken in the same sequence, the figures for `COc1cccc(S(=O)(=O)N2CCC(c3c4cc(C(c5ccc(Cl)cc5)c5ccc(Cl)cc5)ccc4nn3C3CC3)CC2)c1` [Compound 150, 5-(bis(4-chlorophenyl)methyl)-2-cyclopropyl-3-(1-(3-methoxyphenylsulfonyl)piperidin-4-yl)-2H-indazole] were 8.15 and less than 5.00.
The matching figures for `COc1ccc(S(=O)(=O)N2CCC(c3c4cc(C(c5ccc(Cl)cc5)c5ccc(Cl)cc5)ccc4nn3C3CC3)CC2)cc1` [Compound 152, 5-(bis(4-chlorophenyl)methyl)-2-cyclopropyl-3-(1-(4-methoxyphenylsulfonyl)piperidin-4-yl)-2H-indazole]: 7.77 and less than 5.00.
The matching figures for `NC(=O)c1ccc(S(=O)(=O)N2CCC(c3c4cc(C(c5ccc(Cl)cc5)c5ccc(Cl)cc5)ccc4nn3C3CC3)CC2)cc1Cl` [Compound 153, 4-(4-(5-(bis(4-chlorophenyl)methyl)-2-cyclopropyl-2H-indazol-3-yl)piperidin-1-ylsulfonyl)-2-chlorobenzamide]: 7.77 and less than 5.00.
`CNC(=O)c1ccc(S(=O)(=O)N2CCC(c3c4cc(C(c5ccc(Cl)cc5)c5ccc(Cl)cc5)ccc4nn3C3CC3)CC2)cc1Cl` [Compound 154, 4-(4-(5-(bis(4-chlorophenyl)methyl)-2-cyclopropyl-2H-indazol-3-yl)piperidin-1-ylsulfonyl)-2-chloro-N-methylbenzamide]: the figures for the pEC50 in assay [1] and in assay [2] were 8.40 and less than 5.00, respectively.
The matching figures for `CNC(=O)c1ccc(S(=O)(=O)N2CCC(c3c4cc(C(c5ccc(Cl)cc5)c5ccc(Cl)cc5)ccc4nn3C3CC3)CC2)cn1` [Compound 155, 5-(4-(5-(bis(4-chlorophenyl)methyl)-2-cyclopropyl-2H-indazol-3-yl)piperidin-1-ylsulfonyl)-N-methylpicolinamide]: 8.22 and less than 5.00.
With `COc1ccccc1S(=O)(=O)N1CCC(c2c3cc(C(c4ccc(Cl)cc4)c4ccc(Cl)cc4)ccc3nn2C2CC2)CC1` [Compound 156, 5-(bis(4-chlorophenyl)methyl)-2-cyclopropyl-3-(1-(2-methoxyphenylsulfonyl)piperidin-4-yl)-2H-indazole], the pEC50 in assay [1] was 9.00; in assay [2], less than 5.00.
For `COc1ccc(S(=O)(=O)N2CCC(c3c4cc(C(c5ccc(Cl)cc5)c5ccc(Cl)cc5)ccc4nn3C3CC3)CC2)cc1C(N)=O` [Compound 158, 5-(4-(5-(bis(4-chlorophenyl)methyl)-2-cyclopropyl-2H-indazol-3-yl)piperidin-1-ylsulfonyl)-2-methoxybenzamide], the figures for the negative logarithm of the EC50 (pEC50) in assay [1] and in assay [2] were 8.52 and less than 5.00, respectively.
The matching figures for `CNC(=O)c1cc(S(=O)(=O)N2CCC(c3c4cc(C(c5ccc(Cl)cc5)c5ccc(Cl)cc5)ccc4nn3C3CC3)CC2)ccc1OC` [Compound 159, 5-(4-(5-(bis(4-chlorophenyl)methyl)-2-cyclopropyl-2H-indazol-3-yl)piperidin-1-ylsulfonyl)-2-methoxy-N-methylbenzamide]: 8.52 and less than 5.00.
On to `O=C(O)c1ccc(S(=O)(=O)N2CCC(c3c4cc(C(c5ccc(Cl)cc5)c5ccc(Cl)cc5)ccc4nn3C3CC3)CC2)cn1` [Compound 160, 5-(4-(5-(bis(4-chlorophenyl)methyl)-2-cyclopropyl-2H-indazol-3-yl)piperidin-1-ylsulfonyl)picolinic acid], for which the pEC50 in assay [1] is 8.30; in assay [2] it was 5.36.
The matching figures for `O=C(O)c1ccc(S(=O)(=O)N2CCC(c3c4cc(C(c5ccc(Cl)cc5)c5ccc(Cl)cc5)ccc4nn3C3CC3)CC2)cc1Cl` [Compound 161, 4-(4-(5-(bis(4-chlorophenyl)methyl)-2-cyclopropyl-2H-indazol-3-yl)piperidin-1-ylsulfonyl)-2-chlorobenzoic acid]: 8.40 and 6.02.
The matching figures for `O=C(O)c1cc(S(=O)(=O)N2CCC(c3c4cc(C(c5ccc(Cl)cc5)c5ccc(Cl)cc5)ccc4nn3C3CC3)CC2)ccc1F` [Compound 162, 5-(4-(5-(bis(4-chlorophenyl)methyl)-2-cyclopropyl-2H-indazol-3-yl)piperidin-1-ylsulfonyl)-2-fluorobenzoic acid]: 8.40 and 5.28.

The record behind these values is patent US9682940B2, “Indazole derivatives useful as CB-1 inverse agonists” (Janssen Pharmaceutica NV, priority 2015, dated 2017).
